Test results from US20100298141A1, “SUBSTITUTED PYRIDINE N-OXIDE HERBICIDES” (E. I. DU PONT DE NEMOURS AND COMPANY, priority 2007, published 2010).

Tests used:
umbrella sedge = assay: Test C flooded paddy test; assay type: in vivo, Cyperus difformis; conditions: Flood
In short: (§1)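 Pots were flooded to 3 cm above the soil surface at treatment, compound applied directly to the paddy water, and that depth held throughout. Plants were kept in a greenhouse for 13 to 15 days, then visually rated against untreated controls.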

crabgrass [1] = assay: Test A pre-/postemergence greenhouse test; assay type: in vivo, Digitaria sanguinalis; conditions: for Crabgrass, Large plant response rating: 0 to 100 scale; for Plant response rating, Crabgrass, Large: 0 to 100 scale where 0 is no effect and 100 is complete control
In short: (§2)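 Each test compound, dissolved in a non-phytotoxic solvent mixture with surfactant, was sprayed directly onto seeded soil (loam/sand blend) and, at the same moment, onto seedlings carrying one to two leaves. Around ten greenhouse days later, plants were rated visually for injury relative to untreated controls.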

duck salad = assay: Test C flooded paddy test; assay type: in vivo, Heteranthera limosa; conditions: Flood
In short: as §1

barnyardgrass [2] = assay: Test A pre-/postemergence greenhouse test; assay type: in vivo, Echinochloa crus-galli; conditions: for Barnyardgrass plant response rating: 0 to 100 scale; for Plant response rating, Barnyardgrass: 0 to 100 scale where 0 is no effect and 100 is complete control
In short: as §2

pigweed = assay: Test C pre-/postemergence test; assay type: in vivo, Amaranthus retroflexus
In short: (§3)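 Compounds in a non-phytotoxic solvent with surfactant applied preemergence to seeded pots and, at the same time, postemergence to plants 2–18 cm tall (1- to 4-leaf stage). Paddy tests: pots flooded to 3 cm, compound applied into the water, depth held throughout.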

corn [3] = assay: Test C pre-/postemergence test; assay type: in vivo, Zea mays; conditions: for Plant response rating (0 to 100), Corn: 250 g ai/ha
In short: as §3

corn [4] = assay: Test A pre-/postemergence greenhouse test; assay type: in vivo, Zea mays; conditions: for Corn plant response rating: 0 to 100 scale; for Plant response rating, Corn: 0 to 100 scale where 0 is no effect and 100 is complete control
In short: as §2

johnsongrass = assay: Test C pre-/postemergence test; assay type: in vivo, Sorghum halepense; conditions: for Plant response rating (0 to 100), Johnsongrass: 250 g ai/ha
In short: as §3

velvetleaf = assay: Test A pre-/postemergence greenhouse test; assay type: in vivo, Abutilon theophrasti; conditions: for Velvetleaf plant response rating: 0 to 100 scale; for Plant response rating, Velvetleaf: 0 to 100 scale where 0 is no effect and 100 is complete control
In short: as §2

crabgrass [5] = assay: Test C pre-/postemergence test; assay type: in vivo, Digitaria sanguinalis; conditions: for Plant response rating (0 to 100), Crabgrass, Large: 250 g ai/ha
In short: as §3

Italian ryegrass = assay: Test C pre-/postemergence test; assay type: in vivo, Lolium multiflorum
In short: as §3

soybean = assay: Test C pre-/postemergence test; assay type: in vivo, Glycine max
In short: as §3

yellow nutsedge = assay: Test C pre-/postemergence test; assay type: in vivo, Cyperus esculentus
In short: as §3

bermudagrass = assay: Test C pre-/postemergence test; assay type: in vivo, Cynodon dactylon; conditions: for Plant response rating (0 to 100), Bermudagrass: 250 g ai/ha
In short: as §3

green foxtail = assay: Test C pre-/postemergence test; assay type: in vivo, Setaria viridis; conditions: for Plant response rating (0 to 100), Foxtail, Green: 250 g ai/ha
In short: as §3

barnyardgrass [6] = assay: Test C flooded paddy test; assay type: in vivo, Echinochloa crus-galli; conditions: Flood
In short: as §1

Goosegrass = assay: Test C pre-/postemergence test; assay type: in vivo, Eleusin indica; conditions: for Plant response rating (0 to 100), Goosegrass: 250 g ai/ha
In short: as §3

[7] = 31 g ai/ha, scale 0 to 100 (0 no effect, 100 complete control)
[8] = 62 g ai/ha, scale 0 to 100, 0 no effect, 100 complete control, 13 to 15 days
[9] = 125 g ai/ha, scale 0 to 100, 0 no effect, 100 complete control, 13 to 15 days
[10] = 250 g ai/ha, scale 0 to 100 (0 no effect, 100 complete control)
[11] = Postemergence, 125 g ai/ha, 0 is no effect, 100 is complete control
[12] = Postemergence, 500 g ai/ha, 0 is no effect, 100 is complete control
[13] = Preemergence, 125 g ai/ha, 0 no effect, 100 complete control
[14] = 31 g ai/ha, Preemergence, scale 0 to 100
[15] = 62 g ai/ha, preemergence, scale 0 (no effect) to 100 (complete control)
[16] = preemergence, 125 g ai/ha, scale 0 (no effect) to 100 (complete control)
[17] = 62 g ai/ha, Preemergence, scale 0 to 100
[18] = Preemergence, 31 g ai/ha, scale 0 to 100 (0 no effect, 100 complete control)

CC(c1c(C(F)(F)F)nn(C)c1Cl)S(=O)(=O)c1cccc[n+]1[O-] (stereo not drawn) [Compound 10]
Plant response rating, Sedge, Umbrella (umbrella sedge; [7]): 40
Plant response rating, Sedge, Umbrella (umbrella sedge; [8]): 80
Plant response rating, Sedge, Umbrella (umbrella sedge; [9]): 90
Plant response rating, Sedge, Umbrella (umbrella sedge; [10]): 90
Crabgrass, Large plant response rating (crabgrass [1]; [11]): 80
Crabgrass, Large plant response rating (crabgrass [1]; [12]): 90
Crabgrass, Large plant response rating (crabgrass [1]; [13]): 90
Plant response rating, Crabgrass, Large (crabgrass [1]; Preemergence, 500 g ai/ha): 100
Plant response rating, Ducksalad (duck salad; [7]): 30
Plant response rating, Ducksalad (duck salad; [8]): 80
Plant response rating, Ducksalad (duck salad; [9]): 85
Plant response rating, Ducksalad (duck salad; [10]): 90
Barnyardgrass plant response rating (barnyardgrass [2]; [11]): 80
Barnyardgrass plant response rating (barnyardgrass [2]; [12]): 90
Barnyardgrass plant response rating (barnyardgrass [2]; [13]): 100
Plant response rating, Barnyardgrass (barnyardgrass [2]; Preemergence, 500 g ai/ha): 100
Pigweed plant response rating (pigweed; [14]): 70
Pigweed plant response rating (pigweed; [15]): 100
Plant response rating (0 to 100), Pigweed (pigweed; Preemergence, 250 g ai/ha): 100
Pigweed plant response rating (pigweed; [16]): 100
Corn plant response rating (corn [3]; [14]): 0
Corn plant response rating (corn [3]; [15]): 5
Plant response rating (0 to 100), Corn (corn [3]; Preemergence): 95
Corn plant response rating (corn [3]; [16]): 60
Corn plant response rating (corn [4]; [11]): 40
Corn plant response rating (corn [4]; [12]): 60
Corn plant response rating (corn [4]; [13]): 0
Plant response rating, Corn (corn [4]; Preemergence, 500 g ai/ha): 50
Johnsongrass plant response rating (johnsongrass; [14]): 70
Johnsongrass plant response rating (johnsongrass; [15]): 100
Plant response rating (0 to 100), Johnsongrass (johnsongrass; Preemergence): 100
Johnsongrass plant response rating (johnsongrass; [16]): 100
Velvetleaf plant response rating (velvetleaf; [11]): 0
Velvetleaf plant response rating (velvetleaf; [12]): 30
Velvetleaf plant response rating (velvetleaf; [13]): 60
Plant response rating, Velvetleaf (velvetleaf; Preemergence, 500 g ai/ha): 60
Crabgrass, Large plant response rating (crabgrass [5]; [14]): 100
Crabgrass, Large plant response rating (crabgrass [5]; [15]): 100
Plant response rating (0 to 100), Crabgrass, Large (crabgrass [5]; Preemergence): 100
Crabgrass, Large plant response rating (crabgrass [5]; [16]): 100
Ryegrass, Italian plant response rating (Italian ryegrass; [14]): 20
Ryegrass, Italian plant response rating (Italian ryegrass; [15]): 40
Plant response rating (0 to 100), Ryegrass, Italian (Italian ryegrass; Preemergence, 250 g ai/ha): 98
Ryegrass, Italian plant response rating (Italian ryegrass; [16]): 90
Soybean plant response rating (soybean; [14]): 0
Soybean plant response rating (soybean; [15]): 0
Plant response rating (0 to 100), Soybean (soybean; Preemergence, 250 g ai/ha): 10
Soybean plant response rating (soybean; [16]): 5
Nutsedge, Yellow plant response rating (yellow nutsedge; [14]): 60
Nutsedge, Yellow plant response rating (yellow nutsedge; [15]): 98
Plant response rating (0 to 100), Nutsedge, Yellow (yellow nutsedge; Preemergence, 250 g ai/ha): 100
Nutsedge, Yellow plant response rating (yellow nutsedge; [16]): 98
Bermudagrass plant response rating (bermudagrass; [14]): 95
Bermudagrass plant response rating (bermudagrass; [15]): 100
Plant response rating (0 to 100), Bermudagrass (bermudagrass; Preemergence): 100
Bermudagrass plant response rating (bermudagrass; [16]): 100
Foxtail, Green plant response rating (green foxtail; [14]): 70
Foxtail, Green plant response rating (green foxtail; [15]): 85
Plant response rating (0 to 100), Foxtail, Green (green foxtail; Preemergence): 100
Foxtail, Green plant response rating (green foxtail; [16]): 100
Plant response rating, Barnyardgrass (barnyardgrass [6]; [7]): 0
Plant response rating, Barnyardgrass (barnyardgrass [6]; [8]): 30
Plant response rating, Barnyardgrass (barnyardgrass [6]; [9]): 75
Plant response rating, Barnyardgrass (barnyardgrass [6]; [10]): 85
Goosegrass plant response rating (Goosegrass; [14]): 100
Goosegrass plant response rating (Goosegrass; [15]): 100
Plant response rating (0 to 100), Goosegrass (Goosegrass; Preemergence): 100
Goosegrass plant response rating (Goosegrass; [16]): 100

CC(c1c(C(F)(F)F)nn(C)c1OC(F)F)S(=O)(=O)c1cc(C(C)(C)C)cc[n+]1[O-] (racemic) [Compound 26]
Plant response rating, Sedge, Umbrella (umbrella sedge; [7]): 70
Plant response rating, Sedge, Umbrella (umbrella sedge; [8]): 80
Plant response rating, Sedge, Umbrella (umbrella sedge; [9]): 95
Plant response rating, Sedge, Umbrella (umbrella sedge; 250 g ai/ha, scale 0 to 100, 0 no effect, 100 complete control, 13 to 15 days): 95
Crabgrass, Large plant response rating (crabgrass [1]; [11]): 20
Crabgrass, Large plant response rating (crabgrass [1]; [12]): 40
Crabgrass, Large plant response rating (crabgrass [1]; [13]): 90
Plant response rating, Crabgrass, Large (crabgrass [1]; Preemergence, 500 g ai/ha): 100
Plant response rating, Ducksalad (duck salad; [7]): 40
Plant response rating, Ducksalad (duck salad; [8]): 65
Plant response rating, Ducksalad (duck salad; [9]): 65
Plant response rating, Ducksalad (duck salad; [10]): 90
Barnyardgrass plant response rating (barnyardgrass [2]; [11]): 0
Barnyardgrass plant response rating (barnyardgrass [2]; [12]): 0
Barnyardgrass plant response rating (barnyardgrass [2]; [13]): 60
Plant response rating, Barnyardgrass (barnyardgrass [2]; Preemergence, 500 g ai/ha): 90
Pigweed plant response rating (pigweed; [17]): 100
Plant response rating, Pigweed (pigweed; [18]): 85
Corn plant response rating (corn [3]; [17]): 0
Plant response rating, Corn (corn [3]; [18]): 0
Plant response rating (0 to 100), Corn (corn [3]; Preemergence): 95
Corn plant response rating (corn [3]; [16]): 70
Corn plant response rating (corn [4]; [11]): 0
Corn plant response rating (corn [4]; [12]): 0
Corn plant response rating (corn [4]; [13]): 20
Plant response rating, Corn (corn [4]; Preemergence, 500 g ai/ha): 50
Johnsongrass plant response rating (johnsongrass; [17]): 85
Plant response rating (0 to 100), Johnsongrass (johnsongrass; Preemergence): 100
Velvetleaf plant response rating (velvetleaf; [11]): 0
Velvetleaf plant response rating (velvetleaf; [12]): 0
Velvetleaf plant response rating (velvetleaf; [13]): 0
Plant response rating, Velvetleaf (velvetleaf; Preemergence, 500 g ai/ha): 70
Crabgrass, Large plant response rating (crabgrass [5]; [17]): 100
Plant response rating, Crabgrass, Large (crabgrass [5]; [18]): 100
Plant response rating (0 to 100), Crabgrass, Large (crabgrass [5]; Preemergence): 100
Ryegrass, Italian plant response rating (Italian ryegrass; [17]): 65
Plant response rating, Ryegrass, Italian (Italian ryegrass; [18]): 0
Soybean plant response rating (soybean; [17]): 0
Plant response rating, Soybean (soybean; [18]): 0
Nutsedge, Yellow plant response rating (yellow nutsedge; [17]): 50
Plant response rating, Nutsedge, Yellow (yellow nutsedge; [18]): 0
Bermudagrass plant response rating (bermudagrass; 62 g ai/ha, Preemergence, scale 0 to 100 (0 no effect, 100 complete control)): 100
Plant response rating, Bermudagrass (bermudagrass; [18]): 80
Plant response rating (0 to 100), Bermudagrass (bermudagrass; Preemergence): 100
Bermudagrass plant response rating (bermudagrass; [16]): 100
Foxtail, Green plant response rating (green foxtail; [17]): 85
Plant response rating, Foxtail, Green (green foxtail; [18]): 10
Plant response rating (0 to 100), Foxtail, Green (green foxtail; Preemergence): 100
Plant response rating, Barnyardgrass (barnyardgrass [6]; [7]): 0
Plant response rating, Barnyardgrass (barnyardgrass [6]; [8]): 0
Plant response rating, Barnyardgrass (barnyardgrass [6]; [9]): 20
Plant response rating, Barnyardgrass (barnyardgrass [6]; [10]): 80
Goosegrass plant response rating (Goosegrass; [17]): 98
Plant response rating, Goosegrass (Goosegrass; [18]): 90
Plant response rating (0 to 100), Goosegrass (Goosegrass; Preemergence): 100
